# Test: recombinant barcode read abundance after kanamycin selection (control-corrected) (log10(CPM+1)); higher = more efficient recombination; sequences stand for … in AGTGCAGAGAAAATCGGCCAGTTTTCTCTGCCTGCAGTCCGCATGCCGT…AGATTTATGCAGCGGACTGCCTTTCTCCCAAAGTGATAAACCGGACAGTATCATGGACCGGTTTTCCCGGTAATCCGTATTTGCAAGGTTGGTTTCACT; site = the 11-nt target
# How it was run: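 Targets and IS621 bridge RNA target-binding loops were paired in oligos, each with a promoter, a barcode and the J23119-driven first 104 bridge RNA bases. A vector carrying the remaining 73 bp and a T7-inducible recombinase received these by Gibson cloning, and the pool was co-electroporated into E. coli with a donor plasmid. Duplicate plates contained chloramphenicol/ampicillin LB agar (control) or chloramphenicol/ampicillin/kanamycin with 0.1 mM IPTG. Recombination efficiency comes from averaged, control-corrected counts per million of recombinant-junction barcodes, reported as log10(CPM+1).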
# 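Note: IS621 recombinase and bridge RNA in Escherichia coli cells.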
row,Sequence,recombinant barcode read abundance (log10)
1,AGTCTGGCTTGGGTTCTAACCTGTTGCCT (site AGTCTGGCTAG),0.146
2,AGTCTGGCTTGGGTTCTAACCTGTTGCCT (site TGTCTGGCTAG),0.108
3,AGTGACTCTTGGGTTCTAACCTGTTGCCT (site AGTCTCTCTAG),0.0765
4,AGTGACTCTTGGGTTCTAACCTGTTGCCT (site AGTGACTCTAG),2.32
5,AGTTCCACTTGGGTTCTAACCTGTTGCCT (site AGTTACACTAG),0.0694
6,AGTTCCACTTGGGTTCTAACCTGTTGCCT (site AGTTCCACTAG),0.324
7,AGTTCCACTTGGGTTCTAACCTGTTGCCT (site AGTTGCACTAG),0.0253
8,AGTTCCACTTGGGTTCTAACCTGTTGCCT (site AGTTTCACTAG),0.102
9,AGTTCGTCTTGGGTTCTAACCTGTTGCCG (site AGCTCGTCTCC),0.29
10,AGTTCGTCTTGGGTTCTAACCTGTTGCCG (site AGTTCGTCTCG),0.314
11,AGTTCTCCTTGGGTTCTAACCTGTTGCCG (site AGTTCTCCTCG),0.0496
12,AGTTCTCCTTGGGTTCTAACCTGTTGCCG (site GAGCAGGCTAA),0.0339
13,AGTTGTCCTTGGGTTCTAACCTGTTGCAT (site AGTTGTCCTAA),0.0625
14,AGTTGTCCTTGGGTTCTAACCTGTTGCAT (site AGTTGTCCTAC),0.0713
15,AGTTGTCCTTGGGTTCTAACCTGTTGCAT (site AGTTGTCCTAG),0.0326
16,AGTTGTCCTTGGGTTCTAACCTGTTGCAT (site AGTTGTCCTAT),0.219
17,AGTTGTCCTTGGGTTCTAACCTGTTGCTT (site AGTTGTCCTAA),0.126
18,AGTTGTCCTTGGGTTCTAACCTGTTGCTT (site AGTTGTCCTAC),0.0653
19,AGTTGTCCTTGGGTTCTAACCTGTTGCTT (site AGTTGTCCTAG),0.0387
20,AGTTGTCCTTGGGTTCTAACCTGTTGCTT (site AGTTGTCCTAT),0.0416
21,AGTTTCACTTGGGTTCTAACCTGTTGCCT (site AGTTACACTAG),0.11
22,AGTTTCACTTGGGTTCTAACCTGTTGCCT (site AGTTCCACTAG),0.0621

row,Sequence,recombinant barcode read abundance (log10)
1,AGTTTCACTTGGGTTCTAACCTGTTGCCT (site AGTTGCACTAG),0.0233
2,AGTTTCACTTGGGTTCTAACCTGTTGCCT (site AGTTTCACTAG),0.0755
3,ATAAAGACTTGGGTTCTAACCTGTTGCCT (site ATAAAGACTAG),1.96
4,ATAAAGACTTGGGTTCTAACCTGTTGCCT (site ATCAAGACTAG),0.181
5,ATAAAGACTTGGGTTCTAACCTGTTGCCT (site ATGAAGACTAG),0.212
6,ATAAAGACTTGGGTTCTAACCTGTTGCCT (site ATTAAGACTAG),0.586
7,ATAAATGCTTGGGTTCTAACCTGTTGCCT (site ATAAATGCTAG),1.34
8,ATAAATGCTTGGGTTCTAACCTGTTGCCT (site ATAAGGGCTAG),0.0428
9,ATAACAGCTTGGGTTCTAACCTGTTGCCT (site ATAAAAGCTAG),0.224
10,ATAACAGCTTGGGTTCTAACCTGTTGCCT (site ATAACAGCTAG),1.43
11,ATAACAGCTTGGGTTCTAACCTGTTGCCT (site ATAAGAGCTAG),0.279
12,ATAACAGCTTGGGTTCTAACCTGTTGCCT (site ATAATAGCTAG),0.0968
13,ATAACGGCTTGGGTTCTAACCTGTTGCCT (site ATAACGGCTAG),0.434
14,ATAACGGCTTGGGTTCTAACCTGTTGCCT (site GACGGACCTTA),0.0648
15,ATAAGTGCTTGGGTTCTAACCTGTTGCCA (site ATAAGTGCTTG),1.15
16,ATAAGTGCTTGGGTTCTAACCTGTTGCCA (site GTGAGTGCTTG),0.0783
17,ATAATAGCTTGGGTTCTAACCTGTTGCAT (site ATAATAGCTAT),2.02
18,ATAATAGCTTGGGTTCTAACCTGTTGCAT (site GTAATAGCTAT),0.0687
19,ATACGGACTTGGGTTCTAACCTGTTGCTA (site ATAAGGACTTA),0.0991
20,ATACGGACTTGGGTTCTAACCTGTTGCTA (site ATACGGACTTA),2.04
21,ATACGGACTTGGGTTCTAACCTGTTGCTA (site ATAGGGACTTA),0.186
22,ATACGGACTTGGGTTCTAACCTGTTGCTA (site ATATGGACTTA),0.0991

row,Sequence,recombinant barcode read abundance (log10)
1,ATACTCTCTTGGGTTCTAACCTGTTGCCT (site AGACTCTCTAG),0
2,ATACTCTCTTGGGTTCTAACCTGTTGCCT (site ATACTCTCTAG),2.43
3,ATAGAGTCTTGGGTTCTAACCTGTTGCCG (site ATAGAGTCTCG),1.95
4,ATAGAGTCTTGGGTTCTAACCTGTTGCCG (site GCTCCTCCTAT),0.173
5,ATAGGTACTTGGGTTCTAACCTGTTGCTT (site ATAGGTACTAA),1.65
6,ATAGGTACTTGGGTTCTAACCTGTTGCTT (site CTAGGTACTAA),0.534
7,ATAGGTCCTTGGGTTCTAACCTGTTGCTG (site ATAGGTCCTCA),2.91
8,ATAGGTCCTTGGGTTCTAACCTGTTGCTG (site ATGGGTCCTCG),0.0247
9,ATATGAGCTTGGGTTCTAACCTGTTGCCA (site ATATGAGCTTG),0.884
10,ATATGAGCTTGGGTTCTAACCTGTTGCCA (site TTATGAGCTCG),0.0938
11,ATATGTACTTGGGTTCTAACCTGTTGCCG (site ATATGTACTCG),1.07
12,ATATGTACTTGGGTTCTAACCTGTTGCCG (site ATATGTACTTG),0.167
13,ATATGTCCTTGGGTTCTAACCTGTTGCAG (site ATAGGACCTCT),0
14,ATATGTCCTTGGGTTCTAACCTGTTGCAG (site ATATGTCCTCT),1.88
15,ATATTATCTTGGGTTCTAACCTGTTGCCA (site ATATGATCTAG),0.0788
16,ATATTATCTTGGGTTCTAACCTGTTGCCA (site ATATTATCTTG),0.29
17,ATATTGTCTTGGGTTCTAACCTGTTGCCA (site ATATTGCCTAG),0.0374
18,ATATTGTCTTGGGTTCTAACCTGTTGCCA (site ATATTGTCTTG),0.611
19,ATCACTACTTGGGTTCTAACCTGTTGCCT (site ATCACTACTAG),0.207
20,ATCACTACTTGGGTTCTAACCTGTTGCCT (site CTTACTACTAG),0.0823
21,ATCCGCTCTTGGGTTCTAACCTGTTGCCT (site ATCCGCTCTAG),2.06
22,ATCCGCTCTTGGGTTCTAACCTGTTGCCT (site CTCCGCTCTAG),1

row,Sequence,recombinant barcode read abundance (log10)
1,ATCCGCTCTTGGGTTCTAACCTGTTGCCT (site GTCCGCTCTAG),0.0221
2,ATCCGCTCTTGGGTTCTAACCTGTTGCCT (site TTCCGCTCTAG),0.771
3,ATCCTACCTTGGGTTCTAACCTGTTGCTT (site ATCCTACCTAA),1.72
4,ATCCTACCTTGGGTTCTAACCTGTTGCTT (site ATCGTACCTCA),0.113
5,ATCGAGTCTTGGGTTCTAACCTGTTGCCA (site ATCGAGTCTTG),0.276
6,ATCGAGTCTTGGGTTCTAACCTGTTGCCA (site CAAATCCCTAC),0.112
7,ATCGGAACTTGGGTTCTAACCTGTTGCCT (site ATCGGAACTAG),1.01
8,ATCGGAACTTGGGTTCTAACCTGTTGCCT (site ATCGGACCTAG),0.0301
9,ATCGGAACTTGGGTTCTAACCTGTTGCCT (site ATCGGAGCTAG),0.13
10,ATCGGAACTTGGGTTCTAACCTGTTGCCT (site ATCGGATCTAG),0.209
11,ATCGGACCTTGGGTTCTAACCTGTTGCTG (site ATCGGACCTCA),0.901
12,ATCGGACCTTGGGTTCTAACCTGTTGCTG (site TATAATGCTAC),0.148
13,ATCGGAGCTTGGGTTCTAACCTGTTGCAG (site ATCGGAGCTCA),0.504
14,ATCGGAGCTTGGGTTCTAACCTGTTGCAG (site ATCGGAGCTCC),0.166
15,ATCGGAGCTTGGGTTCTAACCTGTTGCAG (site ATCGGAGCTCG),0.294
16,ATCGGAGCTTGGGTTCTAACCTGTTGCAG (site ATCGGAGCTCT),0.953
17,ATCGGAGCTTGGGTTCTAACCTGTTGCCG (site ATCGGAGCTCA),0.165
18,ATCGGAGCTTGGGTTCTAACCTGTTGCCG (site ATCGGAGCTCC),0.0715
19,ATCGGAGCTTGGGTTCTAACCTGTTGCCG (site ATCGGAGCTCG),0.497
20,ATCGGAGCTTGGGTTCTAACCTGTTGCCG (site ATCGGAGCTCT),0.123
